# Data published in patent publication US10590118B2, “Bicyclic heterocyclic derivatives as bromodomain inhibitors” (Orion Corporation, priority 2014, dated 2020).
# Where a name gives a salt, the structure may show the parent alone.
# Biological target: T1, Bet bromodomain protein (BRD4) (Homo sapiens, UniProt O60885)
# T1 construct: made in house
# Assay: Bet bromodomain TR-FRET assay
# Type: binding
# Conditions: 300 nM acetyl histone peptide substrate, results given as Group A/B/C
# Procedure: In-Vitro Biochemical Data of bicyclic heterocyclic derivatives in time-resolved fluorescence resonance energy transfer (TR-FRET) assay.
# The Bet brommodomain TR-FRET assay has been used to identify compounds that bind to bet bromodomain and prevent its interaction with acetylated histone peptides.
# In the assay, optimized concentration of in-house Bet bromodomain protein (BRD4) and 300 nM of acetyl histone peptide substrate were diluted in assay buffer (50 mM HEPES, pH: 7.5, 50 mM NaCl, 500 μM CHAPS) and were added to the positive control and test control wells in a 384 well plate. Substrate control wells have 300 nM of acetyl histone peptide substrate diluted in assay buffer. Buffer blank wells were added with assay buffer. The reaction mixture was allowed for incubation at room temperature for 30 mins. Stock solutions of test compounds at 20 mM DMSO are prepared. Compounds are serially diluted and added to the test wells in 384-well polypropylene plates. The reaction mixture was further incubated for 30 mins at room temperature on a plate shaker. 2 nM of Europium labeled streptavidn and 10 nM of XL-665 labeled antibody diluted in detection buffer (50 mM HEPES, pH: 7.5, 50 mM NaCl, 500 μM CHAPS and 800 mM KF) were added to all the wells excluding the buffer blank wells. The reaction plate was incubated for additional 30 mins at room temperature on plate shaker. The plate was read in Perkin Elmer WALLAC 1420 Multilabel Counter Victor 3 (Ex: 340 nm Em: 615 and 665 nm). The amount of displacement of the peptide was measured as ratio of specific 665 nm energy transfer signal to 615 nm signals. The compounds IC50 was determined by fitting the dose response data to sigmoid curve fitting equation using Graph Pad Prism software V5.
row,SMILES,IC50
1,"COc1ccc(CN2C(=O)COc3cc(-c4c(C)noc4C)c(OC)cc32)nc1 [Compound 30, 7-(3,5-dimethylisoxazol-4-yl)-6-methoxy-4-((5-methoxypyridin-2-yl)methyl)-2H-benzo[b][1,4]oxazin-3(4H)-one]",1 to 3 µM
2,"COc1cc2c(cc1-c1c(C)noc1C)OCC(=O)N2CCc1ccccn1 [Compound 35, 7-(3,5-dimethylisoxazol-4-yl)-6-methoxy-4-(2-(pyridin-2-yl)ethyl)-2H-benzo[b][1,4]oxazin-3(4H)-one]",1 to 3 µM
3,"Cc1noc(C)c1-c1cc2ccc(=O)n(Cc3ccccn3)c2cc1OCCN1CCCC1 [Compound 81, 6-(3,5-dimethylisoxazol-4-yl)-1-(pyridin-2-ylmethyl)-7-(2-(pyrrolidin-1-yl)ethoxy)quinolin-2(1H)-one]",1 to 3 µM
4,"COc1cc2c(ccc(=O)n2Cc2ccccn2)cc1-c1cnoc1C [Compound 63, 7-methoxy-6-(5-methylisoxazol-4-yl)-1-(pyridin-2-ylmethyl)quinolin-2(1H)-one]",> 3 µM
5,"COc1cc2c(ccc(=O)n2C(=O)c2ccc(Cl)cc2)cc1-c1c(C)noc1C [Compound 15, 1-(4-chlorobenzoyl)-6-(3,5-dimethylisoxazol-4-yl)-7-methoxyquinolin-2(1H)-one]",> 3 µM
6,"COc1cc2c(ccc(=O)n2Cc2ccccn2)cc1-c1ccc(O)nc1 [Compound 61, 6-(6-hydroxypyridin-3-yl)-7-methoxy-1-(pyridin-2-ylmethyl)quinolin-2(1H)-one]",> 3 µM
7,"COc1cc2c(cc1-c1c(C)noc1C)CC(C)(C)C(=O)N2Cc1ccccn1 [Compound 52, 6-(3,5-dimethytisoxazol-4-yl)-7-methoxy-3,3-dimethyl-1-(pyridin-2-ylmethyl)-3,4-dihydroquinolin-2(1H)-one]",> 3 µM
8,"COCCOc1cc2c(cc1-c1c(C)noc1C)OCC(=O)N2Cc1ccncc1 [Compound 71, 7-(3,5-dimethylisoxazol-4-yl)-6-(2-methoxyethoxy)-4-(pyridin-4-ylmethyl)-2H-benzo[b][1,4]oxazin-3(4H)-one]",> 3 µM
9,"COc1cc2c(ccc(=O)n2S(=O)(=O)c2ccc(Cl)cc2)cc1-c1c(C)noc1C [Compound 14, 1-((4-chlorophenyl)sulfonyl)-6-(3,5-dimethylisoxazol-4-yl)-7-methoxyquinolin-2(1H)-one]",> 3 µM
10,"Cc1noc(C)c1-c1cc2ccc(=O)n(Cc3ccccn3)c2cc1OC1CCNCC1 [Compound 86, 6-(3,5-dimethylisoxazol-4-yl)-7-(piperidin-4-yloxy)-1-(pyridin-2-ylmethyl)quinolin-2(1H)-one]",> 3 µM
11,"COc1cc2c(cc1-c1c(C)noc1C)c(C)cc(=O)n2Cc1ccccn1 [Compound 53, 6-(3,5-dimethylisoxazol-4-yl)-7-methoxy-4-methyl-1-(pyridin-2-ylmethyl)quinolin-2(1H)-one]",1 to 3 µM
12,"COc1cc2c(cc1NC(=O)c1c(C)noc1C)OCC(=O)N2Cc1ccc(Cl)cc1 [Compound 94, N-(4-(4-chlorobenzyl)-6-methoxy-3-oxo-3,4-dihydro-2H-benzo [b][1,4]oxazin-7-yl)-3,5-dimethylisoxazole-4-carboxamide]",> 3 µM

# Further lines, results first:
row,IC50,SMILES
1,1 to 3 µM,"COc1cc2c(ccc(=O)n2CCc2ccccn2)cc1-c1c(C)noc1C [Compound 42, 6-(3,5-dimethylisoxazol-4-yl)-7-methoxy-1-(2-(pyridin-2-yl)ethyl)quinolin-2(1H)-one]"
2,≤ 1 µM,"COc1cc2c(ccc(=O)n2Cc2nccs2)cc1-c1c(C)noc1C [Compound 39, 6-(3,5-dimethylisoxazol-4-yl)-7-methoxy-1-(thiazol-2-ylmethyl)quinolin-2(1H)-one]"
3,≤ 1 µM,"COc1cc2c(cc1-c1c(C)noc1C)CCC(=O)N2Cc1ccc(Cl)cc1 [Compound 5, 1-(4-chlorobenzyl)-6-(3,5-dimethyisoxazol-4-yl)-7-methoxy-3,4-dihydroquinolin-2(1H)-one]"
4,≤ 1 µM,"COc1cc2c(cc1-c1c(C)noc1C)OCC(=O)N2Cc1ccc(Cl)cc1 [Compound 18, 4-(4-chlorobenzyl)-7-(3,5-dimethylisoxazol-4-yl)-6-methoxy-2H-benzo[b][1,4]oxazin-3(4H)-one]"
5,≤ 1 µM,"COc1cc2c(cc1-c1c(C)noc1C)cc(CF)c(=O)n2Cc1ccccn1 [Compound 97, 6-(3,5-dimethylisoxazol-4-yl)-3-(fluoromethyl)-7-methoxy-1-(pyridin-2-ylmethyl)quinolin-2(1H)-one]"
6,≤ 1 µM,"COc1cc2c(cc1-c1c(C)noc1C)OCC(=O)N2Cc1ccc(Cl)cn1 [Compound 28, 4-((5-chloropyridin-2-yl)methyl)-7-(3,5-dimethylisoxazol-4-yl)-6-methoxy-2H-benzo[b][1,4]oxazin-3(4H)-one]"
7,≤ 1 µM,"COc1cc2c(cc1-c1c(C)noc1C)OCC(=O)N2Cc1ccncc1 [Compound 17, 7-(3,5-dimethylisoxazol-4-yl)-6-methoxy-4-(pyridin-4-ylmethyl)-2H-benzo[b][1,4]oxazin-3(4H)-one]"
8,≤ 1 µM,"COc1cc2c(cc1-c1c(C)noc1C)OCC(=O)N2Cc1ccc(C)nc1 [Compound 32, 7-(3,5-dimethylisoxazol-4-yl)-6-methoxy-4-((6-methylpyridin-3-yl)methyl)-2H-benzo[b][1,4]oxazin-3(4H)-one]"
9,≤ 1 µM,"Cc1noc(C)c1-c1cc2ccc(=O)n(Cc3ccc(Cl)cn3)c2cc1O [Compound 73, 1-((5-chloropyridin-2-yl)methyl)-6-(3,5-dimethylisoxazol-4-yl)-7-hydroxyquinolin-2(1H)-one]"
10,≤ 1 µM,"Cc1noc(C)c1-c1cc2ccc(=O)n(Cc3ccccn3)c2cc1OCCC1CCNC1 (stereo not shown) [Compound 89, 6-(3,5-dimethylisoxazol-4-yl)-1-(pyridin-2-ylmethyl)-7-(2-(pyrrolidin-3-yl)ethoxy)quinolin-2(1H)-one hydrochloride]"
11,≤ 1 µM,"COc1ccc(CN2C(=O)COc3cc(-c4c(C)noc4C)c(OC)cc32)cn1 [Compound 26, 7-(3,5-dimethylisoxazol-4-yl)-6-methoxy-4-((6-methoxypyridin-3-yl)methyl)-2H-benzo[b][1,4]oxazin-3(4H)-one]"
12,≤ 1 µM,"Cc1noc(C)c1-c1cc2ccc(=O)n(Cc3ccccn3)c2cc1OCCO [Compound 80, 6-(3,5-dimethylisoxazol-4-yl)-7-(2-hydroxyethoxy)-1-(pyridin-2-ylmethyl)quinolin-2(1H)-one]"
13,≤ 1 µM,"COc1cc2c(cc1-c1c(C)noc1C)OCCN2C(C)c1cccnc1 (stereo not shown) [Compound 7, 7-(3,5-dimethylisoxazol-4-yl)-6-methoxy-4-(1-(pyridin-3-yl)ethyl)-3,4-dihydro-2H-benzo[b][1,4]oxazine]"
14,≤ 1 µM,"COc1cc2c(cc1-c1c(C)noc1C)cc(C(O)(O)C(F)(F)F)c(=O)n2Cc1ccccn1 [Compound 104, 6-(3,5-dimethylisoxazol-4-yl)-7-methoxy-1-(pyridin-2-ylmethyl)-3-(2,2,2-trifluoro-1,1-dihydroxyethyl)quinolin-2(1H)-one]"
15,≤ 1 µM,"COc1cc2c(ccc(=O)n2Cc2ncccn2)cc1-c1c(C)noc1C [Compound 43, 6-(3,5-dimethylisoxazol-4-yl)-7-methoxy-1-(pyrimidin-2-ylmethyl)quinolin-2(1H)-one]"
16,≤ 1 µM,"COc1ccc(Cn2c(=O)ccc3cc(-c4c(C)noc4C)c(OC)cc32)nc1 [Compound 2, 6-(3,5-dimethytisoxazol-4-yl)-7-methoxy-1-((5-methoxypyridin-2-yl)methyl)quinolin-2(1H)-one]"
